From ChEMBL document CHEMBL6178016, “Design, Synthesis, and Biological Evaluation of New PDE4 Inhibitors for the Treatment of Pressure Ulcers” (J Med Chem, 2025)
Active and inactive are the calls of the source. The calls are words filed in the database; no cut-off is given here.

Legend:
[1] = target: T1, 3',5'-cyclic-AMP phosphodiesterase 4D (Homo sapiens, UniProt Q08499); assay: Inhibition of PDE4D (unknown origin) at 1 uM relative to control
RAW264.7 [2] = assay: Cytotoxicity against mouse RAW264.7 cells at 10 uM measured after 24 hrs by CCK-8 method; type: functional, cell-based
[3] = target: T1, 3',5'-cyclic-AMP phosphodiesterase 4D; assay: Inhibition of PDE4D (unknown origin)
RAW264.7 [4] = assay: Cytotoxicity against mouse RAW264.7 cells measured after 24 hrs by CCK-8 method; type: functional
RAW264.7 [5] = assay: Antiinflammatory activity against mouse RAW264.7 cells assessed as inhibition of LPS-induced TNF-alpha release preincubated for 2 hrs followed by LPS stimulation and measured after 4 hrs by RT-PCR analysis; type: functional, cell-based
RAW264.7 [6] = assay: Antiinflammatory activity against mouse RAW264.7 cells assessed as inhibition of LPS-induced NO release preincubated for 2 hrs followed by LPS stimulation and measured after 4 hrs by RT-PCR analysis; type: functional, cell-based
Rattus norvegicus [7] = assay: Antiinflammatory activity against male Sprague-Dawley rat pressure ulcer model assessed as wound healing rate administration as ointment measured after 7 days (reference value: 70%); type: functional; settings: time 7 day
Rattus norvegicus [8] = assay: Antiinflammatory activity against male Sprague-Dawley rat pressure ulcer model assessed as reduction in IL6 mRNA expression in skin administered as ointment by qRT-PCR analysis; type: functional, organism-based
Rattus norvegicus [9] = assay: Antiinflammatory activity against male Sprague-Dawley rat pressure ulcer model assessed as reduction in TNF-alpha mRNA expression in skin administered as ointment by qRT-PCR analysis; type: functional, organism-based
Rattus norvegicus [10] = assay: Antiinflammatory activity against male Sprague-Dawley rat pressure ulcer model assessed as appearance of thinner epidermal layer administered as ointment by H and E staining based analysis; type: functional, organism-based
Rattus norvegicus [11] = assay: Antiinflammatory activity against male Sprague-Dawley rat pressure ulcer model assessed as decrease in inflammatory cells in dermis administered as ointment by H and E staining based analysis; type: functional, organism-based
Rattus norvegicus [12] = assay: Antiinflammatory activity against male Sprague-Dawley rat pressure ulcer model assessed as increase in number of fibroblasts administered as ointment by H and E staining based analysis; type: functional, organism-based
Rattus norvegicus [13] = assay: Antiinflammatory activity against male Sprague-Dawley rat pressure ulcer model assessed as appearance of orderly arranged cells administered as ointment by H and E staining based analysis; type: functional, organism-based
Rattus norvegicus [14] = assay: Antiinflammatory activity against male Sprague-Dawley rat pressure ulcer model assessed as appearance of orderly arranged cells administered as ointment by Masson staining based analysis; type: functional, organism-based
Rattus norvegicus [15] = assay: Antiinflammatory activity against male Sprague-Dawley rat pressure ulcer model assessed as increase in number of fibroblasts administered as ointment by Masson staining based analysis; type: functional, organism-based
Rattus norvegicus [16] = assay: Antiinflammatory activity against male Sprague-Dawley rat pressure ulcer model assessed as decrease in inflammatory cells in dermis administered as ointment by Masson staining based analysis; type: functional, organism-based
Rattus norvegicus [17] = assay: Antiinflammatory activity against male Sprague-Dawley rat pressure ulcer model assessed as appearance of thinner epidermal layer administered as ointment by Masson staining based analysis; type: functional, organism-based
Enterococcus faecalis = assay: Antibacterial activity against Enterococcus faecalis BNCC296862 assessed as reduction in bacterial colonies growth at 512 ug/ml measured after 24 hrs by agar plate method; type: functional, organism-based; settings: dose 512.0 µg/ml
Enterococcus faecium = assay: Antibacterial activity against Enterococcus faecium BNCC358275 assessed as reduction in bacterial colonies growth at 512 ug/ml measured after 24 hrs by agar plate method; type: functional, organism-based; settings: dose 512.0 µg/ml

T1 sequence (Q08499 whole entry): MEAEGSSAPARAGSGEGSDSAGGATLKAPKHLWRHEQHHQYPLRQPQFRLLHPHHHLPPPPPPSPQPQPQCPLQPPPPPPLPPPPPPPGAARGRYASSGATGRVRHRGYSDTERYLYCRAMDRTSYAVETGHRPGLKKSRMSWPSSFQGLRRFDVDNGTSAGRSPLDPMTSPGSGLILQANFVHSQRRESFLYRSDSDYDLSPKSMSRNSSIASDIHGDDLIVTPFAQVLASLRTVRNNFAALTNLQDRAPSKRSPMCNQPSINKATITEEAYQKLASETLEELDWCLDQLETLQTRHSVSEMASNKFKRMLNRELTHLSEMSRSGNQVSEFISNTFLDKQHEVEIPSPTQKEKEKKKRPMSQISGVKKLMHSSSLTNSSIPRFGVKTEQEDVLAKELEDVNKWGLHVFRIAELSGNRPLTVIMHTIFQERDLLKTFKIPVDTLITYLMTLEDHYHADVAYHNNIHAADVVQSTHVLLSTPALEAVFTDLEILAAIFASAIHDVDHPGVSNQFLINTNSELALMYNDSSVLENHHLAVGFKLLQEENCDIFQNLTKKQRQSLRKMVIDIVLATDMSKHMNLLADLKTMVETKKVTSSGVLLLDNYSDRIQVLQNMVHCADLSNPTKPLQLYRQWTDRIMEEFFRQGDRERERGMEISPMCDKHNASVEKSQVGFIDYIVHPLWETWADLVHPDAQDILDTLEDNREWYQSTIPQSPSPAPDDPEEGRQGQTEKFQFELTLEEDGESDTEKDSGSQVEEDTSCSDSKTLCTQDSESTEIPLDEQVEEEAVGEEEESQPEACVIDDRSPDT

Cn1c(=O)c2c(nc(NCc3ccccc3)n2CCCC(=O)NNC(=O)c2cccc3[nH]c(-c4ccc(OC(F)F)c(OCC5CC5)c4)nc23)n(C)c1=O
inhibition [1]: 85.7% | Activity (RAW264.7 [2]): inactive

Cn1c(=O)c2c(ncn2CCCC(=O)NNC(=O)c2cccc3[nH]c(-c4ccc(OC(F)F)c(OC(F)F)c4)nc23)n(C)c1=O
inhibition [1]: 97.9% | IC50 [3]: 41 nM | Activity (RAW264.7 [2]): inactive | CC50 (RAW264.7 [4]): 76800 nM | IC50 (RAW264.7 [5]): > 60000 nM | IC50 (RAW264.7 [6]): 2180 nM

Cn1c(=O)c2c(nc(NCc3ccccc3)n2CCCC(=O)NNC(=O)c2cc3nccc(-c4ccc(OC(F)F)c(OCC5CC5)c4)n3n2)n(C)c1=O
inhibition [1]: 43% | Activity (RAW264.7 [2]): inactive

Cn1c(=O)c2c(nc(Br)n2CCCC(=O)NNC(=O)c2cccc3[nH]c(-c4ccc(OC(F)F)c(OCC5CC5)c4)nc23)n(C)c1=O
inhibition [1]: 99.2% | Activity (RAW264.7 [2]): inactive

Cn1c(=O)c2c(ncn2CCCC(=O)NNC(=O)c2cnn3c(-c4ccc(OC(F)F)c(OCC5CC5)c4)ccnc23)n(C)c1=O
inhibition [1]: 85.7% | Activity (RAW264.7 [2]): inactive

Cn1c(=O)c2c(nc(NCc3ccccc3)n2CCCC(=O)NNC(=O)c2coc(-c3ccc(OC(F)F)c(OCC4CC4)c3)n2)n(C)c1=O
inhibition [1]: 85.5% | Activity (RAW264.7 [2]): inactive

Cn1c(=O)c2c(ncn2CCC(=O)NNC(=O)c2c[nH]c(-c3ccc(OC(F)F)c(OC(F)F)c3)n2)n(C)c1=O
inhibition [1]: 82.1% | Activity (RAW264.7 [2]): inactive

Cn1c(=O)c2c(ncn2CCC(=O)NNC(=O)c2cccc3[nH]c(-c4ccc(OC(F)F)c(OCC5CC5)c4)nc23)n(C)c1=O
inhibition [1]: 96.9% | Activity (RAW264.7 [2]): inactive

Cn1c(=O)c2c(nc(Br)n2CCCC(=O)NNC(=O)c2cc3nccc(-c4ccc(OC(F)F)c(OCC5CC5)c4)n3n2)n(C)c1=O
inhibition [1]: 94.7% | IC50 [3]: 276 nM | Activity (RAW264.7 [2]): inactive

Cn1c(=O)c2c(nc(NCc3ccccc3)n2CCCC(=O)NNC(=O)c2csc(-c3ccc(OC(F)F)c(OCC4CC4)c3)n2)n(C)c1=O
inhibition [1]: 89.9% | Activity (RAW264.7 [2]): inactive

Cn1c(=O)c2c(ncn2CCC(=O)NNC(=O)c2csc(-c3ccc(OC(F)F)c(OCC4CC4)c3)n2)n(C)c1=O
inhibition [1]: 87.5% | Activity (RAW264.7 [2]): inactive

Cn1c(=O)c2c(nc(NCc3ccccc3)n2CCCC(=O)NNC(=O)c2cccc3[nH]c(-c4ccc(OC(F)F)c(OC(F)F)c4)nc23)n(C)c1=O
inhibition [1]: 92.4% | Activity (RAW264.7 [2]): inactive

Cn1c(=O)c2c(ncn2CCCC(=O)NNC(=O)c2cc3nccc(-c4ccc(OC(F)F)c(OCC5CC5)c4)n3n2)n(C)c1=O
inhibition [1]: 95.6% | Activity (RAW264.7 [2]): inactive

COc1ccc(C2CNC(=O)C2)cc1OC1CCCC1 (stereo not given) [ROLIPRAM]
CC50 (RAW264.7 [4]): > 60000 nM | IC50 (RAW264.7 [5]): 39900 nM | IC50 (RAW264.7 [6]): > 60000 nM

Cn1c(=O)c2c(ncn2CCCC(=O)NNC(=O)c2coc(-c3ccc(OC(F)F)c(OCC4CC4)c3)n2)n(C)c1=O
inhibition [1]: 92.4% | Activity (RAW264.7 [2]): inactive

Cn1c(=O)c2c(ncn2CCCC(=O)NNC(=O)c2csc(-c3ccc(OC(F)F)c(OCC4CC4)c3)n2)n(C)c1=O
inhibition [1]: 98.4% | Activity (RAW264.7 [2]): inactive

O=C(Nc1c(Cl)cncc1Cl)c1ccc(OC(F)F)c(OCC2CC2)c1 [ROFLUMILAST]
Activity (Rattus norvegicus [7]): 81% | Activity (Rattus norvegicus [8]): Active | Activity (Rattus norvegicus [9]): Active | Activity (Rattus norvegicus [10]): Active | Activity (Rattus norvegicus [11]): Active | Activity (Rattus norvegicus [12]): Active | Activity (Rattus norvegicus [13]): Active | Activity (Rattus norvegicus [14]): Active | Activity (Rattus norvegicus [15]): Active | Activity (Rattus norvegicus [16]): Active | Activity (Rattus norvegicus [17]): Active

Cn1c(=O)c2c(ncn2CCC(=O)NNC(=O)c2c[nH]c(-c3ccc(OC(F)F)c(OCC4CC4)c3)n2)n(C)c1=O
inhibition [1]: 96.4% | Activity (RAW264.7 [2]): inactive

Cn1c(=O)c2c(ncn2CCC(=O)NNC(=O)c2cnn3c(-c4ccc(OC(F)F)c(OCC5CC5)c4)ccnc23)n(C)c1=O
inhibition [1]: 38.8% | Activity (RAW264.7 [2]): inactive

Cn1c(=O)c2c(ncn2CCC(=O)NNC(=O)c2coc(-c3ccc(OC(F)F)c(OCC4CC4)c3)n2)n(C)c1=O
inhibition [1]: 63% | Activity (RAW264.7 [2]): inactive

Cn1c(=O)c2c(nc(Br)n2CCCC(=O)NNC(=O)c2csc(-c3ccc(OC(F)F)c(OCC4CC4)c3)n2)n(C)c1=O
inhibition [1]: 97.2% | Activity (RAW264.7 [2]): inactive

CN[C@H](CC(C)C)C(=O)N[C@H]1C(=O)N[C@@H](CC(N)=O)C(=O)N[C@H]2C(=O)N[C@H]3C(=O)N[C@H](C(=O)N[C@H](C(=O)O)c4cc(O)cc(O)c4-c4cc3ccc4O)[C@H](O)c3ccc(c(Cl)c3)Oc3cc2cc(c3O[C@@H]2O[C@H](CO)[C@@H](O)[C@H](O)[C@H]2O[C@H]2C[C@](C)(N)[C@H](O)[C@H](C)O2)Oc2ccc(cc2Cl)[C@H]1O
Activity (Enterococcus faecalis): Active | Activity (Enterococcus faecium): Active

Cn1c(=O)c2c(ncn2CCC(=O)NNC(=O)c2cccc3[nH]c(-c4ccc(OC(F)F)c(OC(F)F)c4)nc23)n(C)c1=O
inhibition [1]: 92.6% | IC50 [3]: 29 nM | Activity (RAW264.7 [2]): inactive

Cn1c(=O)c2c(nc(Br)n2CCCC(=O)NNC(=O)c2coc(-c3ccc(OC(F)F)c(OCC4CC4)c3)n2)n(C)c1=O
inhibition [1]: 85.3% | Activity (RAW264.7 [2]): inactive

Cn1c(=O)c2c(nc(NCc3ccccc3)n2CCCC(=O)NNC(=O)c2cnn3c(-c4ccc(OC(F)F)c(OCC5CC5)c4)ccnc23)n(C)c1=O
inhibition [1]: 30.3% | Activity (RAW264.7 [2]): inactive

Cn1c(=O)c2c(ncn2CCCC(=O)NNC(=O)c2cccc3[nH]c(-c4ccc(OC(F)F)c(OCC5CC5)c4)nc23)n(C)c1=O
inhibition [1]: 96.8% | Activity (RAW264.7 [2]): inactive

Cn1c(=O)c2c(nc(Br)n2CCCC(=O)NNC(=O)c2cccc3[nH]c(-c4ccc(OC(F)F)c(OC(F)F)c4)nc23)n(C)c1=O
inhibition [1]: 96.8% | Activity (RAW264.7 [2]): inactive
